Experimental data published in paper PMC11418212, “Characterization of four structurally diverse inhibitors of SUR2-containing KATP channels” (Channels, 2024).
“Also recorded” adds a separate entry of the source.

Experiments:
[1] = target: T1, Kir6.1/SUR2B (Homo sapiens, UniProt O60706); assay: Whole-cell patch clamp electrophysiology, T-Rex-HEK293-Kir6.1/SUR2B cells; type: cell-based; conditions: 10 µM compound in continued presence of pinacidil (1 μM in Figure 2)
T1 construct: expressed in transfected cells; Kir6.1 tetracycline-inducible, SUR2B constitutive
T1 sequence (O60706 1-1549 isoform O60706-2, species assumed): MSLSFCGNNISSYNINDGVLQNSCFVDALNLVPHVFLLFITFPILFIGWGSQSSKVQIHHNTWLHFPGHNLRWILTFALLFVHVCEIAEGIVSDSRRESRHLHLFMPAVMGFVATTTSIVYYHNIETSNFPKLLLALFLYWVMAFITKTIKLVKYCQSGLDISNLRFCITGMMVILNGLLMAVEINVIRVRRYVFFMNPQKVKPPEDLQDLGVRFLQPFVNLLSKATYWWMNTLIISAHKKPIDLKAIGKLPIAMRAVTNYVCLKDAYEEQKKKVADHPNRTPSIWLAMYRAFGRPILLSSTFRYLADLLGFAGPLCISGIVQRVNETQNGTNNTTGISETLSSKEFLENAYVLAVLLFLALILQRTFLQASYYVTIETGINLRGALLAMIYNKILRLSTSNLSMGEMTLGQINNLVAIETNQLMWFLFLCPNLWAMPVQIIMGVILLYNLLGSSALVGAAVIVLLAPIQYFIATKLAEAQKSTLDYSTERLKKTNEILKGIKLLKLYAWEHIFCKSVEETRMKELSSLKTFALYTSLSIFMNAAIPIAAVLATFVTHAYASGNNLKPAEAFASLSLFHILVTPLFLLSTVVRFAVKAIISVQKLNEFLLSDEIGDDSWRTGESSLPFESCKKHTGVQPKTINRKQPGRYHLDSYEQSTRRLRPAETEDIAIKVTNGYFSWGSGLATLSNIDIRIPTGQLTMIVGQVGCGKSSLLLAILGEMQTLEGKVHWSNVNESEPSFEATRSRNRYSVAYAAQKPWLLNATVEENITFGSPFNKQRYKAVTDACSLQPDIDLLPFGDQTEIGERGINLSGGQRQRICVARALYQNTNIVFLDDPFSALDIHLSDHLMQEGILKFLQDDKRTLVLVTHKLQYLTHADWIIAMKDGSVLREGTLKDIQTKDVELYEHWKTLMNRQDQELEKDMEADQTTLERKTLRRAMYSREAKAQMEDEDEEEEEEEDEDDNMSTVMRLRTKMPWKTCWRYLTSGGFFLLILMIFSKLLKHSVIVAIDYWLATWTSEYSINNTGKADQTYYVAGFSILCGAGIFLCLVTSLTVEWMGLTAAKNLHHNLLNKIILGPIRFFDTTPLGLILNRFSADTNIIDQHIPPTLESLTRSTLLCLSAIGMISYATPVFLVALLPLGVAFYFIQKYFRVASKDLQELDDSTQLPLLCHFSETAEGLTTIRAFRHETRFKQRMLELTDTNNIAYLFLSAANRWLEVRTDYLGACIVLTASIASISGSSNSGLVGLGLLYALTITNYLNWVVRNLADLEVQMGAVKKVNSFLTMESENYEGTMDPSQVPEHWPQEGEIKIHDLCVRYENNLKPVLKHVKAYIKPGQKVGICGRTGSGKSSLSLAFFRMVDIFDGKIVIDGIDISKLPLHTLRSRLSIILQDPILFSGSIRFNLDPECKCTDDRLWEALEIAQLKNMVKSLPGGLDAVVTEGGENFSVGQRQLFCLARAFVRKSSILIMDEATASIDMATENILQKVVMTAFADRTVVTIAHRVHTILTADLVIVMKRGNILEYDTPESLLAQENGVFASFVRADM
T1 sequence (Q15842 whole entry partner, species assumed): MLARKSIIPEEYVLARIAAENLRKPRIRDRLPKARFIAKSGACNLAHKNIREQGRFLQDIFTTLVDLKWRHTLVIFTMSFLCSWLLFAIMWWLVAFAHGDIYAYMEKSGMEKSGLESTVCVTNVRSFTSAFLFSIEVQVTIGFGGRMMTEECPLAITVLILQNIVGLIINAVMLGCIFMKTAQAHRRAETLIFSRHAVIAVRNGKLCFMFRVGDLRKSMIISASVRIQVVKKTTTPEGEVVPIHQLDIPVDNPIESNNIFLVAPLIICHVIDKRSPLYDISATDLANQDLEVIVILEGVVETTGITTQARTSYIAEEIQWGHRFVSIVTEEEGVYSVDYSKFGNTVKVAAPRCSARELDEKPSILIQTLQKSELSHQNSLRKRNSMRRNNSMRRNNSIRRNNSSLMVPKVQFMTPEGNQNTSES
Method: Whole-cell patch clamp electrophysiology experiments were conducted as described previously. Briefly, stably transfected T-Rex-HEK293 cells expressing Kir6.1/SUR2B were seeded at a density of 250,000 cells per 35-mm dish coated with tissue culture-treated polystyrene and incubated at 37°C in a 5% CO2 atmosphere. Whole-cell patch-clamp experiments were initiated 48 h post-seeding. On the day of the experiment, cells were dissociated and seeded onto poly-L-lysine-coated glass coverslips, where they were allowed to recover for at least one hour in a 37°C/5% CO2 incubator prior to the recordings. Patch pipettes with resistances of 2 to 3 MΩ were employed, containing an internal solution composed of 130 mM KCl, 2 mM MgCl2, 1 mM EGTA, 20 mM HEPES-free acid, and 1 mM Na2ADP, adjusted to pH 7.3 with KOH and an osmolarity of 275 mOsmol/kg with sucrose. The extracellular solution consisted of 135 mM NaCl, 5 mM KCl, 2 mM CaCl2, 1 mM MgCl2, 5 mM glucose, and 10 mM HEPES-free acid adjusted to pH 7.4 with NaOH. Test compounds were initially diluted in DMSO before being further diluted into the bath solution, maintaining a final DMSO concentration of less than 0.1% v/v. Recordings of macroscopic currents were conducted in a voltage-clamp setup using an Axopatch 200B Amplifier (Molecular Devices, Sunnyvale, CA), with data sampled at 5 kHz and low-pass filtered at 1 kHz. A ramp protocol was used to generate current–voltage curve relationships. The voltage protocol involved holding the cells at −75 mV, followed by a 200-msec step to −120 mV, a linear ramp to 120 mV over 240 msec at a rate of […], maintaining at 120 mV for 15 msec, and finally stepping back to −120 mV for 100 msec, with this sequence repeated every 5 seconds. […] All data acquisition and analyses were performed using pClamp software version 9.2 (Molecular Devices).
Gold-standard voltage-clamp electrophysiology was used to confirm the inhibitory effects of VU0212387, VU0543336, VU0605768, and VU0544086 on Kir6.1/SUR2B channel activity (Figure 2a–d).
Figure 2. Confirmation of VU0212387, VU0543336, VU0605768, or VU0544086-dependent inhibition of Kir6.1/SUR2B with patch clamp electrophysiology. […] VU compounds tested were (a) VU0212387, (b) VU0543336, (c) VU0605768, or (d) VU0544086. Data mean ± SD current density (n = 3).

[2] = target: Kir6.2/SUR1 (Homo sapiens, UniProt Q09428); assay: Quantitative thallium flux assay, inhibition, stably transfected T-REx-HEK293 cells; type: cell-based; conditions: for Effect on Kir6.2/SUR1 channel activity: VU0071063 activation or ATP depletion, full range of doses tested (up to 30 µM); for IC50 / IC50 Kir6.2/SUR1, ATP depletion / IC50 Kir6.2/SUR1, VU0071063 activation: thallium flux; for IC50 / IC50 Kir6.2/SUR1, ATP depletion: ATP depletion with sodium cyanide and 2-deoxy-glucose; for IC50 Kir6.2/SUR1, VU0071063 activation: in the presence of 10 uM VU0071063
Kir6.2/SUR1, sequence (Q09428 whole entry, species assumed): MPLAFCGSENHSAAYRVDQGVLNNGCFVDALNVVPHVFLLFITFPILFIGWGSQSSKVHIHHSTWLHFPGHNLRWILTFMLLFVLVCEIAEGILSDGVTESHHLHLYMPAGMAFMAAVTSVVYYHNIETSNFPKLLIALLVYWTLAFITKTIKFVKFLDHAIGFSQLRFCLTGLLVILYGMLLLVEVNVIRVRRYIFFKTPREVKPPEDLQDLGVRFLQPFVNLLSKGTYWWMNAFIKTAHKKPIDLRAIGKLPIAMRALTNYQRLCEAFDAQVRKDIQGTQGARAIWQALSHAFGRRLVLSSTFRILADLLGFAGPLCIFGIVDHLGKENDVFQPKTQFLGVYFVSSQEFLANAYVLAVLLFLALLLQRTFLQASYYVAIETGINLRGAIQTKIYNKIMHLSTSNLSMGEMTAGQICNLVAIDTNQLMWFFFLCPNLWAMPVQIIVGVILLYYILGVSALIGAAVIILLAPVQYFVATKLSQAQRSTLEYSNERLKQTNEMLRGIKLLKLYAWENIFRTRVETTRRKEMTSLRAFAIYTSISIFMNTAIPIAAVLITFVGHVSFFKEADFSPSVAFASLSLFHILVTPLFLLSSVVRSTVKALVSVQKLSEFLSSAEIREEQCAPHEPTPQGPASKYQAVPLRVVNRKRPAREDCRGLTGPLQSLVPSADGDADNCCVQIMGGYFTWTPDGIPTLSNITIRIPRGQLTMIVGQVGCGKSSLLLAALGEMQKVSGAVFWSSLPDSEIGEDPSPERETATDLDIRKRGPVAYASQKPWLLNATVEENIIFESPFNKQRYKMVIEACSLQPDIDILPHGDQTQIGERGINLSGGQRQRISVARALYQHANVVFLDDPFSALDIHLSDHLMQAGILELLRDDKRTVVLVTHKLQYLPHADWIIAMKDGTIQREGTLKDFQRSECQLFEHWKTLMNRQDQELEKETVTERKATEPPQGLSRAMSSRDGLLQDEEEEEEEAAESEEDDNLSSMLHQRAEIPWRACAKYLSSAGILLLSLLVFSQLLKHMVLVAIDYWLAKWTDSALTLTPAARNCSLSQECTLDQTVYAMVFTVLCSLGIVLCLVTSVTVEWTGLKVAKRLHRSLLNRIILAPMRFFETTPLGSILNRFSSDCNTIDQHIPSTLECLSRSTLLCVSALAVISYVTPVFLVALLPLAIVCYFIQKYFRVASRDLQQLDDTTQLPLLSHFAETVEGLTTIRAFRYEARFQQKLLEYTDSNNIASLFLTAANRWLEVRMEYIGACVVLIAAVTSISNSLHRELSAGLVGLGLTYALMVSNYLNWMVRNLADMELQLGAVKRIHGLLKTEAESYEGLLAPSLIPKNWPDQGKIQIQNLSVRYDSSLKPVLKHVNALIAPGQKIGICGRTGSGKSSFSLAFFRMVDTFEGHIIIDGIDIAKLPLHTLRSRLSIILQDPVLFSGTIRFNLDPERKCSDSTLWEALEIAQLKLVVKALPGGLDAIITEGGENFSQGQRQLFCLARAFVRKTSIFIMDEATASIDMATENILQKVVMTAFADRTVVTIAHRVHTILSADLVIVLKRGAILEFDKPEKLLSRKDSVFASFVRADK
Kir6.2/SUR1, sequence (Q14654 whole entry partner, species assumed): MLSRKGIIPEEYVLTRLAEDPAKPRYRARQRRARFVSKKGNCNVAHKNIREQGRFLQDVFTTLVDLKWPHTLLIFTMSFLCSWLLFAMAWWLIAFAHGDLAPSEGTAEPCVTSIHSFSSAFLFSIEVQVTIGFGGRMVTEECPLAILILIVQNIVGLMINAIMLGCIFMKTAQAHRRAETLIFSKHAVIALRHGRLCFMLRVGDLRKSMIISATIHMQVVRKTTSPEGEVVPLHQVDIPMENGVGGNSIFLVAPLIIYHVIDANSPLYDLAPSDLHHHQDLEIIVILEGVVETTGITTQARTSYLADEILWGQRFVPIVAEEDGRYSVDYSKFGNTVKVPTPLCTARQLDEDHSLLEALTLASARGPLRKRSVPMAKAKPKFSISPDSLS
Method: Briefly, T-Rex-HEK293 cells underwent co-transfection with pcDNA5/TO-Kir6.1 or pcDNA5/TO-Kir6.2 (inducible expression) and pcDNA3.1-SUR2B or pcDNA3.1-SUR1 (constitutive expression) using Lipofectamine LTX following the manufacturer’s instructions and were then subjected to selection with antibiotics. Monoclonal cell lines were established through limiting dilution and characterization in thallium flux assays described below. […] KATP channel selectivity assays were performed in HEK293 cells transiently transfected with the indicated subunit using Lipofectamine LTX. The cells were incubated for 48 h after transfection before performing thallium flux assays.
Thallium flux assays were conducted using the established methods. Stably transfected T-REx-HEK-293 cells expressing Kir6.2/SUR1 or Kir6.1/SUR2B were cultured overnight in polyamine-coated plates (black-walled, clear-bottomed; BD, Bedford, MA) at a density of 20,000 cells in 20 µl per well of cell culture media. The expression of Kir6.2/SUR1 or Kir6.1/SUR2B channels was induced by treating cells with 1 µg/ml tetracycline overnight. The following day, cells were rinsed with an assay buffer (Hanks’ Balanced Salt Solution supplied with 20 mM HEPES), loaded with the thallium-sensor dye Brilliant Thallos-AM AM (Ion Bioscience, San Marcos, TX) for 1 h, and then washed again with assay buffer to remove unincorporated dye. […] To activate KATP channels independent of activators with ATP-depletion method, cells were treated with a cocktail of metabolic inhibitors (2.5 mM sodium cyanide and 20 mM 2-deoxy glucose) for 25 min before imagine. Control and test compounds diluted freshly from DMSO stocks into assay buffer were added to wells for four minutes before adding 0.5 mM chloride-free thallium stimulus buffer (Ion Bioscience) to initiate thallium flux through the expressed KATP channels. Thallium flux was recorded from all 384-wells for 2 min before terminating the experiment. […] Selectivity assays against other Kir channels were performed as described previously.
The kinetic fluorescence measurements (F) from each well were normalized to the initial reading (F0), producing static ratios (F/F0) that adjust for variations in cell count and dye uptake. […] The response (maxmin2) was determined by subtracting the min value from the max value. Percent inhibition was calculated by normalizing each well’s response to the positive and negative controls. Concentration–response curves were fitted using a single-site, four-parameter logistic function in Prism version 4.0 (GraphPad Software Inc., San Diego, CA) to calculate the half-maximal inhibitory concentration (IC50). Statistical comparisons of IC50 values were performed using an extra sum-of-squares F test and the Mann–Whitney test. A p-value of less than 0.05 was considered statistically significant.

| Structure (SMILES) | Inhibition of Kir6.1/SUR2B whole-cell current [1] | Effect on Kir6.2/SUR1 channel activity [2] | IC50 [2] | IC50 Kir6.2/SUR1, ATP depletion [2] | IC50 Kir6.2/SUR1, VU0071063 activation [2] |
| --- | --- | --- | --- | --- | --- |
| O=C(NCc1cc(-c2ccncc2)n(C2CCCC2)n1)Nc1cccs1 [VU0544086, 1-((1-cyclopentyl-5-(pyridin-4-yl)-1 H-pyrazol-3-yl)methyl)-3-(thiophen-2-yl)urea] | complete KATP channel inhibition | no apparent inhibitory activity; also recorded: no effect | > 30 µM | no fit | no fit |
| O=C(NCC(O)(c1ccccc1)C(F)(F)F)c1ccc(OC(F)(F)F)cc1 (centres unmarked) [VU0543336, N-(3,3,3-trifluoro-2-hydroxy-2-phenylpropyl)-4-(trifluoromethoxy)benzamide] | complete KATP channel inhibition | no apparent inhibitory activity; also recorded: no effect | > 30 µM | no fit | no fit |
| O=C1c2oc3ccccc3c(=O)c2C(c2cccc(Br)c2)N1CCO (centres unmarked) [VU0605768, 1-(3-bromophenyl)-2-(2-hydroxyethyl)-1,2-dihydrochromeno[2,3-c]pyrrole-3,9-dione] | complete KATP channel inhibition | no apparent inhibitory activity; also recorded: no effect | > 30 µM | no fit | no fit |
| c1ccc2[nH]c(CSc3ncnc4c3oc3ccccc34)nc2c1 [VU0212387, 4-(((1 H-benzo[d]imidazol-2-yl)methyl)thio)benzofuro[3,2-d]pyrimidine] | complete KATP channel inhibition | no apparent inhibitory activity; also recorded: no effect | > 30 µM | no fit | no fit |
